Source: US7273882B2, “Aminoacetamide acyl guanidines as β-secretase inhibitors” (priority 2006, dated 2007)
pIC50: −log10 of the molar value.

target: T1, BACE1 enzyme (Homo sapiens, UniProt P56817); assay: Radioligand displacement (binding) assay with radiolabeled BACE inhibitor on HEK293-9B.A1 cell homogenate; conditions: not given
T1 construct: was derived from HEK293 cells; endogenous in cells; washed 48,000 x g pellet of the cell homogenate
Text: There are a number of methods by which inhibitors of the BACE enzyme can be identified experimentally. The enzyme can be obtained from membrane samples from natural tissues or cultured cells or can be expressed recombinantly in a host cell by well known methods of molecular biology. The whole enzyme or a portion thereof can be expressed, for example, in bacterial, insect or mammalian cells to obtain a catalytically active enzyme species. The enzymatic activity and/or ligand binding capability of the enzyme can be assessed within these membrane samples, or the enzyme can be purified to varying extents. As an illustrative example, the nucleic acid sequence encoding the pro and catalytic domains of human BACE can be appended on the 5′ end with an untranslated and signal sequence from the gene for acetylcholinesterase, and on the 3′ end with a sequence encoding a poly-histidine tag. This cDNA can then be expressed in Drosophila melanogaster S2 cells in which the signal and pro sequences of the transcribed/translated protein are removed by cellular proteases and the catalytic domain, appended by a C-terminal poly-histidine tag, is secreted out into the cellular medium. The enzyme can then be purified from the culture medium by nickel affinity chromatography by methods well known to those trained in the art [Mallender, W. et al., (2001) “Characterization of recombinant, soluble beta-secretase from an insect cell expression system.” Mol. Pharmacol. 59: 619-626]. Similar strategies for expressing and purifying various forms of BACE in bacterial, mammalian and other cell types would be known to one skilled in the art., A preferred method for determining the potency of a test compound in binding to the BACE enzyme is by monitoring the displacement of a suitable radioligand.
Radioligand displacement assays with a radiolabeled BACE inhibitor (WO 2004 013098, compound 3, where the methoxy group is substituted for C(^3H)3) were carried out using standard methods (Keen, M. (1999) in Receptor Binding Techniques (Walker, J. M. ed) p. 106 Humana Press, Totowa, N.J.). The HEK293-9B.A1 cell line, which overexpresses the BACE1 enzyme, was derived from HEK293 cells (Simmons, N. L. (1990) A cultured human renal epithelioid cell line responsive to vasoactive intestinal peptide. Exp. Physiol. 75:309-19.) by RAGE™ (Harrington, J. J. et al. (2001) Creation of genome-wide protein expression libraries using random activation of gene expression. Nat. Biotechnol. 19:440-5.; U.S. Pat. Nos. 6,410,266 and 6,361,972). T225 flask cultures of HEK293-9B.A1 were grown to 80% confluency in DMEM supplemented with 2 mM L-glutamine, 10 μg/ml penicillin, 10 μg/ml streptomycin, 3 μg/ml puromycin, 100 nM methotrexate, and 10% fetal bovine serum (Invitrogen, Carlsbad, Calif.), harvested, and resuspended at 2×10^8 cells per 10 ml of lysis buffer consisting of 50 mM HEPES pH 7.0 containing a protease inhibitor cocktail of AEBSF 104 μM, aprotinin 80 nM, leupeptin 2 μM, bestatin 4 μM, pepstatin A 1.5 μM, and E-64 1.4 μM (0.1% of protease inhibitor cocktail P8340, Sigma-Aldrich, St. Louis, Mo.) at 4° C. The resuspended cells were homogenized using a Polytron (Brinkman, Westbury, N.Y.) at setting 6 for 10 sec., then centrifuged at 48,000×g for 10 min. The resulting pellet was washed by repeating the resuspension, homogenization and centrifugation steps. The final pellet was resuspended in buffer at 4° C. to yield a total protein concentration of 5 mg/ml, then aliquots were frozen in liquid nitrogen for further storage at −70° C. Immediately before carrying out a binding assay, an aliquot of cell homogenate was thawed and diluted to a concentration of 100 μg/ml in assay buffer consisting of 50 mM HEPES pH 5.0 and 0.1% CHAPSO. […]

T1 sequence (P56817 46-501): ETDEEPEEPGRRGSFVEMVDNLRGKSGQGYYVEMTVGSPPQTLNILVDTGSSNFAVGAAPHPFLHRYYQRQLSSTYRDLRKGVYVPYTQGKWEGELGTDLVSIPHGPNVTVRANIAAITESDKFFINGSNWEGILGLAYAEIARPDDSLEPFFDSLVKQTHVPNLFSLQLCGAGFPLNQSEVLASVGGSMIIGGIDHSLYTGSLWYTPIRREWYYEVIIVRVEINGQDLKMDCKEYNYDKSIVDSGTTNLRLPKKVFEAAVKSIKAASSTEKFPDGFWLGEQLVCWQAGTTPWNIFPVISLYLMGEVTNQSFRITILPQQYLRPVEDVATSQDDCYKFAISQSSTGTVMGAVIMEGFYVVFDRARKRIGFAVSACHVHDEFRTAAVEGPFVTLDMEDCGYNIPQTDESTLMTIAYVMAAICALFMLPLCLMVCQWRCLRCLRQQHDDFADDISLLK

**Q.** With `Cc1noc(-c2ccccc2)c1C(=O)/N=C(\N)NCc1cc(Cl)c(N)c(Cl)c1` [Example 22] as the compound, how does the pIC50 read?
**A.** 6.00 to 7.00

**Q.** `COc1ccc(-c2n[nH]c(C)c2C(=O)N=C(N)NCc2cc(Cl)c(N)c(Cl)c2)cc1` [Example 132] was tested. Which pIC50 did it give?
**A.** 6.00 to 7.00

**Q.** `COc1ccc(-c2nsc(C)c2C(=O)NC(N)=NCc2cc(C)c(NC(C)=O)c(Cl)c2)cc1` [Example 144] was tested. Which pIC50 did it give?
**A.** > 7.00

**Q.** `COc1ccc(-c2noc(C)c2C(=O)/N=C(/N)NCc2cc(Cl)c(N)c(Br)c2)cc1` [Example 148, N-((3-Bromo-4-amino-5-chlorobenzylamino)(amino)methylene)-3-(4-methoxyphenyl)-5-methylisoxazole-4-carboxamide] was tested. Which pIC50 did it give?
**A.** 6.00 to 7.00

**Q.** `COc1ccc(-c2nsc(C)c2C(=O)/N=C(/N)NCc2cc(Cl)c(N)c(Cl)c2)cc1` [Example 149, N-((4-amino-3,5-dichlorobenzylamino)(amino)methylene)-3-(4-methoxyphenyl)-5-methylisothiazole-4-carboxamide] was tested. Which pIC50 did it give?
**A.** > 7.00

**Q.** With `COc1ccc(-c2nsc(C)c2C(=O)/N=C(/N)NCc2cc(Cl)c(N)c(Br)c2)cc1` [Example 150, N-((3-Bromo-4-amino-5-chlorobenzylamino)(amino)methylene)-3-(4-methoxyphenyl)-5-methylisothiazole-4-carboxamide] as the compound, how does the pIC50 read?
**A.** > 7.00

**Q.** With `COC/C=C/c1cc(Cl)cc(CN/C(N)=N/C(=O)c2c(-c3ccc(OC)cc3)noc2C)c1` [Example 152, N-((3-chloro-5-((E)-3-methoxyprop-1-enyl)benzylamino)(amino)methylene)-3-(4-methoxyphenyl)-5-methylisoxazole-4-carboxamide] as the compound, how does the pIC50 read?
**A.** 6.00 to 7.00

**Q.** How did the pIC50 turn out when `COC/C=C/c1cc(CN/C(N)=N/C(=O)c2c(-c3ccc(OC)cc3)noc2C)cc(Cl)c1N` [Example 153, N-((4-amino-3-chloro-5-((E)-3-methoxyprop-1-enyl)benzylamino) (amino)methylene)-3-(4-methoxyphenyl)-5-methylisoxazole-4-carboxamide] was run?
**A.** > 7.00

**Q.** `COC/C=C/c1cc(CN/C(N)=N/C(=O)c2c(-c3ccc(OC)cc3)nsc2C)cc(Cl)c1N` [Example 154, N-((4-amino-3-chloro-5-((E)-3-methoxyprop-1-enyl)benzylamino) (amino)methylene)-3-(4-methoxyphenyl)-5-methylisothiazole-4-carboxamide] was tested. Which pIC50 did it give?
**A.** > 7.00

**Q.** `COc1ccc(-c2noc(C)c2C(=O)N=C(N)NCc2cc(Cl)cc(C=CCCO)c2)cc1` [Example 168] was tested. Which pIC50 did it give?
**A.** 6.00 to 7.00

**Q.** `CCOC(=O)NCc1cc(Cl)cc(CN/C(N)=N/C(=O)c2c(-c3ccc(OC)cc3)noc2C)c1` [Example 203] was tested. Which pIC50 did it give?
**A.** 6.00 to 7.00

**Q.** With `COc1ccc(-c2nsc(C)c2C(=O)/N=C(\N)NCc2cc(Cl)cc(CNC(=O)/C=C/c3ccccc3)c2)cc1` [Example 237, N-(((E)-3-chloro-5-(cinnamamidomethyl)benzylamino)(amino)methylene)-3-(4-methoxyphenyl)-5-methylisothiazole-4-carboxamide] as the compound, how does the pIC50 read?
**A.** > 7.00

**Q.** `COc1ccc(-c2nsc(C)c2C(=O)/N=C(\N)NCc2cc(Cl)c(NC(C)=O)c(Cl)c2)cc1` [Example 279, (E)-N-((4-acetamido-3,5-dichlorobenzylamino)(amino)methylene)-3-(4-methoxyphenyl)-5-methylisothiazole-4-carboxamide] was tested. Which pIC50 did it give?
**A.** > 7.00

same assay, conditions: radioligand displacement, HEK293-9B.A1 cell homogenate overexpressing BACE1; read-out: Activity Rating (activity based on IC50 values)

**Q.** With `COc1ccc(-c2noc(C)c2C(=O)/N=C(\N)NCc2cc(Cl)c(NC(=O)CN(C)C)c(Cl)c2)cc1` [Example 280, (E)-N-((3,5-dichloro-4-(2-(dimethylamino)acetamido)benzylamino)(amino)methylene)-3-(4-methoxyphenyl)-5-methylisoxazole-4-carboxamide] as the compound, how does the pIC50 read?
**A.** > 7.00

**Q.** `COc1ccc(-c2nsc(C)c2C(=O)/N=C(\N)NCc2cc(Cl)c(NC(=O)CN(C)C)c(Cl)c2)cc1` [Example 327] was tested. Which pIC50 did it give?
**A.** > 7.00
